From PubChem BioAssay AID332 (DTP/NCI, 2004)
Values joined by “and” are separate entries in the source; they are usually repeats but may differ in a detail not shown here. Identical values can stand only once. Records with an inconclusive call do not appear.

System: mice, ADJ-PC-20 plasma cell tumor sc, T/C %
Assay: NCI In Vivo Anticancer Drug Screen. Data for tumor model ADJ-PC-20 Plasma Cell (subcutaneous) in unknown mice
Settings: endpoint: mean tumor weight, higher = larger tumour
Description: The antitumor activity of compounds was measured in mice bearing transplantable tumors. Survival or tumor size were measured and the results are expressed as the measurement made in the treated group (T) divided by the measurement made in the vehicle treated control group (C). The tumor model used in this assay is ADJ-PC-20 Plasma Cell (subcutaneous) in unknown mice

[1] = dose: 12.5 mg/kg/injection, schedule: Q01DX010 (ip), vehicle: carboxymethylcellulose (CMC)
[2] = dose: 25.0 mg/kg/injection, schedule: Q01DX010 (ip), vehicle: carboxymethylcellulose (CMC)
[3] = dose: 50.0 mg/kg/injection, schedule: Q01DX010 (ip), vehicle: carboxymethylcellulose (CMC)
[4] = dose: 7.5 mg/kg/injection, schedule: Q01DX010 (ip), vehicle: carboxymethylcellulose (CMC)
[5] = dose: 6.3 mg/kg/injection, schedule: Q01DX010 (ip), vehicle: water
[6] = dose: 6.25 mg/kg/injection, schedule: Q01DX010 (ip), vehicle: saline

Oc1cc(CN(CCCl)CCCl)c(O)cc1CN(CCCl)CCCl
T/C (dose: 0.22 mg/kg/injection, schedule: Q01DX010 (sc), vehicle: steriod suspending solution): 62 % of control
T/C (dose: 0.45 mg/kg/injection, schedule: Q01DX010 (sc), vehicle: steriod suspending solution): 69 % of control
T/C (dose: 0.9 mg/kg/injection, schedule: Q01DX010 (sc), vehicle: steriod suspending solution): 76 % of control
T/C (dose: 1.8 mg/kg/injection, schedule: Q01DX010 (sc), vehicle: steriod suspending solution): 28 % of control

Clc1ncnc2nc[nH]c12
T/C (dose: 7.8 mg/kg/injection, schedule: Q01DX010 (ip), vehicle: carboxymethylcellulose (CMC)): 153 % of control
T/C (dose: 15.6 mg/kg/injection, schedule: Q01DX010 (ip), vehicle: carboxymethylcellulose (CMC)): 86 % of control
T/C (dose: 31.2 mg/kg/injection, schedule: Q01DX010 (ip), vehicle: carboxymethylcellulose (CMC)): 64 % of control
T/C (dose: 31.25 mg/kg/injection, schedule: Q01DX010 (ip), vehicle: carboxymethylcellulose (CMC)): 14 % of control
T/C (dose: 62.5 mg/kg/injection, schedule: Q01DX010 (ip), vehicle: carboxymethylcellulose (CMC)): 3 % of control
T/C (dose: 125.0 mg/kg/injection, schedule: Q01DX010 (ip), vehicle: carboxymethylcellulose (CMC)): 4 % of control

CS(=O)(=O)OCCCl
T/C [1]: 120 % of control
T/C [2]: 114 % of control
T/C [3]: 76 % of control
T/C (dose: 100.0 mg/kg/injection, schedule: Q01DX010 (ip), vehicle: carboxymethylcellulose (CMC)): 124 % of control

COC(=O)c1nc(-c2ccc3c(n2)C(=O)C(N)=C(OC)C3=O)c(N)c(-c2ccc(OC)c(OC)c2O)c1C
T/C (dose: 0.35 mg/kg/injection, schedule: Q01DX010 (ip), vehicle: other): 71 % of control
T/C (dose: 0.65 mg/kg/injection, schedule: Q01DX010 (ip), vehicle: other): 60 % of control
T/C (dose: 1.08 mg/kg/injection, schedule: Q01DX010 (ip), vehicle: other): 32 % of control
T/C (dose: 1.8 mg/kg/injection, schedule: Q01DX010 (ip), vehicle: other): 4 % of control

Cc1cc(N(CCCl)CCCl)ccc1N=Nc1ccccc1C(=O)O
T/C (dose: 0.95 mg/kg/injection, schedule: Q01DX010 (ip), vehicle: carboxymethylcellulose (CMC)): 60 % of control
T/C (dose: 1.9 mg/kg/injection, schedule: Q01DX010 (ip), vehicle: carboxymethylcellulose (CMC)): 56 % of control
T/C (dose: 3.8 mg/kg/injection, schedule: Q01DX010 (ip), vehicle: carboxymethylcellulose (CMC)): 38 % of control
T/C [4]: 25 % of control

CS(=O)(=O)OCC(O)C(O)COS(C)(=O)=O (stereo not given)
T/C (dose: 99.0 mg/kg/injection, schedule: Q01DX010 (ip), vehicle: saline): 78 % of control
T/C (dose: 188.0 mg/kg/injection, schedule: Q01DX010 (ip), vehicle: saline): 53 % of control
T/C (dose: 375.0 mg/kg/injection, schedule: Q01DX010 (ip), vehicle: saline): 58 % of control
T/C (dose: 750.0 mg/kg/injection, schedule: Q01DX010 (ip), vehicle: saline): 7 % of control

C[C@]12CC[C@H](OC3OC(CO)C(O)C(O)C3O)C[C@H]1CC[C@@H]1[C@@H]2CC[C@]2(C)[C@@H](C3=CCOC3=O)CC[C@]12O (stereo not given in full)
T/C (dose: 63.0 micrograms/kg/injection, schedule: Q01DX010 (ip), vehicle: saline): 99 % of control
T/C (dose: 125.0 micrograms/kg/injection, schedule: Q01DX010 (ip), vehicle: saline): 93 % of control
T/C (dose: 250.0 micrograms/kg/injection, schedule: Q01DX010 (ip), vehicle: saline): 95 % of control

CC(=O)N(C)C
T/C (dose: 250.0 mg/kg/injection, schedule: Q01DX010 (ip), vehicle: saline): 60 % of control
T/C (dose: 500.0 mg/kg/injection, schedule: Q01DX010 (ip), vehicle: saline): 75 % of control
T/C (dose: 1000.0 mg/kg/injection, schedule: Q01DX010 (ip), vehicle: saline): 51 % of control

O=C(Nc1ccc(C2=NCCN2)cc1)c1ccc(C(=O)Nc2ccc(C3=NCCN3)cc2)c(Cl)c1
T/C (dose: 1.62 mg/kg/injection, schedule: Q01DX010 (ip), vehicle: water): 108 % of control
T/C (dose: 3.12 mg/kg/injection, schedule: Q01DX010 (ip), vehicle: water): 152 % of control
T/C (dose: 6.25 mg/kg/injection, schedule: Q01DX010 (ip), vehicle: water): 94 % of control
T/C [5]: 64 % of control
T/C (dose: 7.5 mg/kg/injection, schedule: Q01DX010 (ip), vehicle: water): 81 % of control and 83 % of control
T/C (dose: 12.5 mg/kg/injection, schedule: Q01DX010 (ip), vehicle: water): 121 % of control
T/C (dose: 30.0 mg/kg/injection, schedule: Q01DX010 (ip), vehicle: water): 55 % of control and 66 % of control

Nc1ncnc2[nH]ncc12
T/C (dose: 6.25 mg/kg/injection, schedule: Q01DX010 (ip), vehicle: carboxymethylcellulose (CMC)): 108 % of control
T/C [1]: 87 % of control
T/C [2]: 22 % of control

O=P1(N(CCCl)CCCl)NCCCO1 (stereo not given)
T/C (dose: 3.2 mg/kg/injection, schedule: Q01DX010 (ip), vehicle: saline): 21 % of control
T/C [6]: 7 % of control

CCCCNc1ncnc2c1cnn2C
T/C (dose: 3.1 mg/kg/injection, schedule: Q01DX010 (ip), vehicle: carboxymethylcellulose (CMC)): 94 % of control
T/C [1]: 122 % of control
T/C [2]: 96 % of control
T/C [3]: 109 % of control

CC[C@@H](c1ccc(O)cc1)[C@@H](CC)c1ccc(O)cc1
T/C (dose: 62.0 mg/kg/injection, schedule: Q01DX010 (sc), vehicle: steriod suspending solution): 80 % of control
T/C (dose: 125.0 mg/kg/injection, schedule: Q01DX010 (sc), vehicle: steriod suspending solution): 87 % of control
T/C (dose: 250.0 mg/kg/injection, schedule: Q01DX010 (sc), vehicle: steriod suspending solution): 83 % of control
T/C (dose: 500.0 mg/kg/injection, schedule: Q01DX010 (sc), vehicle: steriod suspending solution): 91 % of control and 105 % of control
T/C (dose: 1000.0 mg/kg/injection, schedule: Q01DX010 (sc), vehicle: steriod suspending solution): 111 % of control

CCN(CC)CCNc1ccc(C)c2sc3ccccc3c(=O)c12
T/C (dose: 0.78 mg/kg/injection, schedule: Q01DX010 (ip), vehicle: methylcellulose (MC)): 150 % of control
T/C (dose: 1.56 mg/kg/injection, schedule: Q01DX010 (ip), vehicle: methylcellulose (MC)): 194 % of control
T/C (dose: 6.25 mg/kg/injection, schedule: Q01DX010 (ip), vehicle: methylcellulose (MC)): 27 % of control

Clc1ccc(C(c2ccccc2Cl)C(Cl)Cl)cc1 (stereo not given)
T/C (dose: 25.0 mg/kg/injection, schedule: Q01DX010 (sc), vehicle: steriod suspending solution): 66 % of control
T/C (dose: 50.0 mg/kg/injection, schedule: Q01DX010 (sc), vehicle: steriod suspending solution): 60 % of control
T/C (dose: 200.0 mg/kg/injection, schedule: Q01DX010 (sc), vehicle: steriod suspending solution): 86 % of control and 100 % of control and 109 % of control
T/C (dose: 400.0 mg/kg/injection, schedule: Q01DX010 (sc), vehicle: steriod suspending solution): 92 % of control
T/C (dose: 800.0 mg/kg/injection, schedule: Q01DX010 (sc), vehicle: steriod suspending solution): 73 % of control

CC(=O)O[C@]1(C(C)=O)CC[C@H]2[C@@H]3C[C@H](C)C4=CC(=O)C=C[C@]4(C)[C@@]3(F)[C@@H](O)C[C@@]21C
T/C (dose: 5.0 mg/kg/injection, schedule: Q01DX010 (sc), vehicle: steriod suspending solution): 82 % of control
T/C (dose: 10.0 mg/kg/injection, schedule: Q01DX010 (sc), vehicle: steriod suspending solution): 55 % of control
T/C (dose: 20.0 mg/kg/injection, schedule: Q01DX010 (sc), vehicle: steriod suspending solution): 74 % of control
T/C (dose: 40.0 mg/kg/injection, schedule: Q01DX010 (sc), vehicle: steriod suspending solution): 73 % of control
T/C (dose: 80.0 mg/kg/injection, schedule: Q01DX010 (sc), vehicle: steriod suspending solution): 33 % of control

C[C@]12C=CC(=O)C=C1CC[C@@H]1[C@@H]2[C@@H](O)C[C@@]2(C)[C@H]1CC[C@]2(O)C(=O)CO
T/C (dose: 32.0 mg/kg/injection, schedule: Q01DX010 (sc), vehicle: steriod suspending solution): 63 % of control

C=CC(CN1CC1)OC(C)=O (stereo not given)
T/C (dose: 3.75 mg/kg/injection, schedule: Q01DX010 (ip), vehicle: carboxymethylcellulose (CMC)): 72 % of control
T/C [4]: 40 % of control

C[C@@H]1C[C@@H]([C@H](O)CC2CC(=O)NC(=O)C2)C(=O)[C@@H](C)C1
T/C (dose: 1.6 mg/kg/injection, schedule: Q01DX010 (ip), vehicle: water): 91 % of control
T/C (dose: 3.1 mg/kg/injection, schedule: Q01DX010 (ip), vehicle: water): 84 % of control
T/C [6]: 50 % of control
T/C [5]: 78 % of control

CCCCCCCCCCCCNCCCCCCCCCCCC
T/C (dose: 0.9 mg/kg/injection, schedule: Q01DX010 (ip), vehicle: carboxymethylcellulose (CMC)): 109 % of control
T/C (dose: 1.8 mg/kg/injection, schedule: Q01DX010 (ip), vehicle: carboxymethylcellulose (CMC)): 109 % of control
T/C (dose: 3.7 mg/kg/injection, schedule: Q01DX010 (ip), vehicle: carboxymethylcellulose (CMC)): 98 % of control
T/C [4]: 88 % of control and 110 % of control

O=c1[nH]cc(F)c(=O)[nH]1
T/C (dose: 1.56 mg/kg/injection, schedule: Q01DX010 (ip), vehicle: saline): 173 % of control
T/C [6]: 35 % of control
T/C (dose: 12.5 mg/kg/injection, schedule: Q01DX010 (ip), vehicle: saline): 20 % of control
